According to ChEMBL document CHEMBL5338791, “Discovery of Novel 1,3-Diphenylpyrazine Derivatives as Potent S-Phase Kinase-Associated Protein 2 (Skp2) Inhibitors for the Treatment of Cancer” (J Med Chem, 2023):
Calls of active or inactive are those of the source. The rule behind the calls is not given here.

Legend:
[1] = system: PC-3; experiment: Induction of apoptosis in human PC-3 cells assessed as early apoptotic cells at 10 uM incubated for 48 hrs by annexin V-FITC/PI staining based flow cytometry (reference value: 0.85 %); format: functional
[2] = AUC (infinity) in tumor of NOD-SCID mouse model xenografted with human PC-3 cells at 25 mg/kg, IG measured upto 48 hrs by LC-MS/MS analysis; format: ADME, organism-based, Neoplasm; parameters: dose 25 mg/kg, time < 48 hrs, route ig; conditions: in vivo, po
[3] = system: MGC-803; experiment: Upregulation of p27 level in human MGC-803 cells at 10 uM incubated upto 48 hrs by Western blot analysis; format: functional, cell-based
[4] = Toxicity in NOD-SCID mouse model xenografted with human MGC-803 cells assessed as change in lung histology at 10 to 50 mg/kg, IG administered once every 2 days for 21 days by H and E staining based analysis; format: organism-based; conditions: in vivo, po, 504 h, dose 10-50 mg/kg, time 21 day
[5] = system: MGC-803; experiment: Induction of apoptosis in human MGC-803 cells assessed as cell shrinkage incubated for 48 hrs; format: functional, cell-based; conditions: dose <= 10.0 µM
[6] = system: PC-3; experiment: Induction of cell cycle arrest in human PC-3 cells assessed as accumulation of cells at G2 phase at 10 uM incubated for 36 hrs by flow cytometry (reference value: 19.34 %); format: functional
[7] = target: S-phase kinase-associated protein 2 (Homo sapiens, UniProt Q13309); experiment: Inhibition of Skp2 in human MGC-803 cells treated with shRNA 5'-GGACCTATCGAACTCAGTTAT-3' incubated upto 48 hrs by Western blot analysis (reference value: 7 +/- 1.1 microM); format: cell-based
S-phase kinase-associated protein 2, sequence (Q13309 whole entry): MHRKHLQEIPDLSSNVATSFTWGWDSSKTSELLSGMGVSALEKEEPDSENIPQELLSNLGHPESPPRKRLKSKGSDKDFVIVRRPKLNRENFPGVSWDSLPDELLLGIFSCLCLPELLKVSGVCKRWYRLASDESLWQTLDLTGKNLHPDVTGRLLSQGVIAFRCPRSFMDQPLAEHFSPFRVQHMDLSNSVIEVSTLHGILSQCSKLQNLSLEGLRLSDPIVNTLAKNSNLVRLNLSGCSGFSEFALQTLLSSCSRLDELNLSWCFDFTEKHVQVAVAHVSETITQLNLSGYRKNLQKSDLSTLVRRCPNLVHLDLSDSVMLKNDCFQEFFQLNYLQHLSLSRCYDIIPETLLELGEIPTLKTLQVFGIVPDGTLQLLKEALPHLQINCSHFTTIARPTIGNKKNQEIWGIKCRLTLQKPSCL

[8] = system: MGC-803; experiment: Induction of apoptosis in human MGC-803 cells assessed as late apoptotic cells at 2.5 uM incubated for 48 hrs by annexin V-FITC/PI staining based flow cytometry (reference value: 0.95 %); format: functional
[9] = system: MGC-803; experiment: Induction of apoptosis in human MGC-803 cells assessed as early apoptotic cells at 10 uM incubated for 48 hrs by annexin V-FITC/PI staining based flow cytometry (reference value: 0.21 %); format: functional
[10] = system: MGC-803; experiment: Induction of apoptosis in human MGC-803 cells assessed as necrotic cells at 2.5 uM incubated for 48 hrs by annexin V-FITC/PI staining based flow cytometry (reference value: 0.89 %); format: functional
[11] = system: MGC-803; experiment: Inhibition of colony formation in human MGC-803 cells at 0.5 to 2 uM incubated for 10 days by crystal violet staining based microscopy; format: functional, cell-based; conditions: dose 0.5-2 µM, time 10.0 day
[12] = Antitumor activity against human EC1 cells assessed as cell growth inhibition incubated for 72 hrs by MTT assay; format: functional, cell-based; conditions: EC1, 72 h
[13] = system: MGC-803; experiment: Induction of cell cycle arrest in human MGC-803 cells assessed as accumulation of cells at G1 phase at 10 uM incubated for 24 hrs by flow cytometry (reference value: 57.09 %); format: functional
[14] = system: PC-3; experiment: Antitumor activity against human PC-3 cells xenografted in NOD-SCID mouse model assessed as p21 accumulation at 10 to 50 mg/kg, IG administered once every 2 days for 21 days by Western blot analysis; format: functional, organism-based; conditions: dose 10-50 mg/kg, time 21.0 day
[15] = system: MGC-803; experiment: Induction of cell cycle arrest in human MGC-803 cells assessed as accumulation of cells at S phase at 10 uM incubated for 24 hrs by flow cytometry (reference value: 20.41 %); format: functional
[16] = system: MGC-803; experiment: Inhibition of cell migration in human MGC-803 cells incubated for 48 hrs by wound healing assay; format: functional, cell-based; conditions: dose <= 2.0 µM
[17] = Toxicity in mouse assessed as decrease in platelet level at 10 to 50 mg/kg; format: organism-based; conditions: dose 10-50 mg/kg
[18] = system: PC-3; experiment: Induction of cell cycle arrest in human PC-3 cells assessed as accumulation of cells at S phase at 5 uM incubated for 48 hrs by flow cytometry (reference value: 22.44 %); format: functional
[19] = system: PC-3; experiment: Antitumor activity against human PC-3 cells xenografted in NOD-SCID mouse model assessed as tumor growth inhibition at 10 mg/kg, IG administered once every 2 days for 21 days relative to control; format: functional; conditions: PC-3, po, 504 h, time 21 day, read-out: TGI
[20] = Metabolic stability in mouse liver S9 fraction assessed as half life at 20 umol/L preincubated for 5 mins followed by NADPH addition measured upto 60 mins by LC-MS/MS analysis; format: ADME, subcellular; conditions: dose 20 µmol/L, time < 65 min
[21] = system: MGC-803; experiment: Induction of apoptosis in human MGC-803 cells assessed as nuclear fragmentation incubated for 48 hrs; format: functional, cell-based; conditions: dose <= 10.0 µM
[22] = system: PC-3; experiment: Induction of cell cycle arrest in human PC-3 cells assessed as accumulation of cells at S phase at 10 uM incubated for 12 hrs by flow cytometry (reference value: 19.7 %); format: functional
[23] = system: PC-3; experiment: Induction of apoptosis in human PC-3 cells assessed as late apoptotic cells at 5 uM incubated for 48 hrs by annexin V-FITC/PI staining based flow cytometry (reference value: 0.45 %); format: functional
[24] = system: PC-3; experiment: Induction of cell cycle arrest in human PC-3 cells assessed as accumulation of cells at S phase at 10 uM incubated for 48 hrs by flow cytometry (reference value: 19.7 %); format: functional
[25] = system: NCI-H1299; experiment: Antitumor activity against human NCI-H1299 cells overexpressing Skp2 assessed as cell growth inhibition incubated for 72 hrs by MTT assay; format: functional, cell-based; conditions: NCI-H1299, 72 h
[26] = system: PC-3; experiment: Induction of apoptosis in human PC-3 cells assessed as necrotic cells at 5 uM incubated for 48 hrs by annexin V-FITC/PI staining based flow cytometry (reference value: 0.14 %); format: functional
[27] = system: PC-3; experiment: Upregulation of p27 level in human PC-3 cells at 10 uM incubated upto 48 hrs by Western blot analysis; format: functional, cell-based
[28] = system: PC-3; experiment: Induction of apoptosis in human PC-3 cells assessed as late apoptotic cells at 10 uM incubated for 48 hrs by annexin V-FITC/PI staining based flow cytometry (reference value: 0.45 %); format: functional
[29] = system: MGC-803; experiment: Induction of apoptosis in human MGC-803 cells assessed as viable cells at 5 uM incubated for 48 hrs by annexin V-FITC/PI staining based flow cytometry (reference value: 98 %); format: functional; conditions: read-out: Activity
[30] = system: MGC-803; experiment: Antitumor activity against human MGC-803 cells xenografted in NOD-SCID mouse model assessed as increase in apoptosis in tumor tissue at 10 to 50 mg/kg, IG administered once every 2 days for 21 days by TUNEL staining based analysis; format: functional, organism-based; conditions: dose 10-50 mg/kg, time 21.0 day
[31] = system: MGC-803; experiment: Downregulation of Skp2 level in human MGC-803 cells incubated for 48 hrs by Western blot analysis; format: functional, cell-based; conditions: dose <= 10.0 µM
[32] = system: PC-3; experiment: Antitumor activity against human PC-3 cells xenografted in NOD-SCID mouse model assessed as downregulation of Skp2 expression at 10 to 50 mg/kg, IG administered once every 2 days for 21 days by Western blot analysis; format: functional, organism-based; conditions: dose 10-50 mg/kg, time 21.0 day
[33] = system: ES-2; experiment: Antitumor activity against human ES2 cells overexpressing Skp2 assessed as cell growth inhibition incubated for 72 hrs by MTT assay; format: functional, cell-based; conditions: ES-2, 72 h
[34] = system: MGC-803; experiment: Induction of cell cycle arrest in human MGC-803 cells assessed as accumulation of cells at G2 phase at 10 uM incubated for 48 hrs by flow cytometry (reference value: 21.35 %); format: functional

For `O=C(CCl)NC1CCN(c2cnc(-c3ccccc3)c(-c3ccccc3)n2)CC1`, the Activity [1] was 0.2%, the AUC [2] was 2636 ng·h/g and the Activity [3] was “Active”. For the same compound, the Activity [4] was “Non-Toxic”, the Activity [5] was “Dose-Dependent Effect” and the Activity [6] was 20.75%. It also gave an IC50 [7] of 39.2 µM, an Activity [8] of 6.57% and an Activity [9] of 3.41%. The Activity [10] was 1.02%, the inhibition [11] was “Active” and the IC50 [12] was 7 µM. For the same compound, the Activity [13] was 44.68%, the Activity [14] was “Active” and the Activity [15] was 35.4%. The inhibition [16] was “Dose-Dependent Effect”, the Activity [17] was “Toxic” and the Activity [18] was 38.7%. For the same compound, the inhibition in vivo at 10 mg/kg [19] was 55.7%, the half-life at 20 µM [20] was 16.5 min and the Activity [21] was “Dose-Dependent Effect”. For the same compound, the Activity [22] was 32.51%, the Activity [23] was 12% and the Activity [24] was 44.19%. For the same compound, the IC50 [25] was 3.6 µM, the Activity [26] was 5.15% and the Activity [27] was “Active”. The Activity [28] was 27.9%, the viability at 5 µM [29] was 82.9% and the Activity [30] was “Active”. The Activity [31] was “Dose-Dependent Effect”, the Activity [32] was “Active” and the IC50 [33] was 3.6 µM. For the same compound, the Activity [34] was 14.35%.
